This is an account of results in patent US20190125888A1, “TARGETED CONJUGATES AND PARTICLES AND FORMULATIONS THEREOF” (priority 2015, published 2019).

The subject of data set [1] is NCI-H524 (ATCC) human lung cancer cells. The format is cell-based. On the procedure:
FIG. 1 is a graph of various conjugates represented as bars and showing on the Y-axis their activity in an H524 proliferation assay with and without competition by octreotide. […] This illustrates the suprprising finding that only maytansinoid conjugates show activity that is dependent on the receptor.
Conjugates were assessed in an in vitro assay evaluating inhibition of cell proliferation. NCI-H524 (ATCC) human lung cancer cells were plated in 96 well, V-bottomed plates (Costar) at a concentration of 5,000 cells/well and 24 hours later were treated with compound for 6 hours and further incubated 66 hours. Compound starting dose was 20 μM and three fold serial dilutions were done for a total of ten points. After 6 hours of treatment, cells were spun down, the drug containing media was removed, and fresh complete medium was added and used to resuspend the cells, which were spun again. After removal of the wash media, the cells were resuspended in complete medium, then transferred into white walled, flat bottomed 96 well plates. […] Proliferation was measured using CellTiter Glo reagent using the standard protocol (Promega) and a Glomax multi+detection system (Promega). Percent proliferation inhibition was calculated using the following formula: % inhibition=(control-treatment)/control*100. Control is defined as vehicle alone. IC50 curves were generated using the nonlinear regression analysis (four parameter) with GraphPad Prism 6.
Conjugates were tested for their activity dependence on the somatostatin receptor. Active agent Z in the conjugate was selected from auristatin, carbazitaxel, DM1, doxorubicin, platinum, SN-38 and vinblastine. Active agent Z is connected to octreotide with various linkers. Proliferation IC50 values of the conjugates were measured. Proliferation IC50 values of the conjugates without octreotide competition were also measured. The ratio of IC50 with octreotide competition and IC50 without octreotide competition is an indicator of whether activity is at least particially dependent on bind to the somatostatin receptor. […] Therefore, the activity of conjugates comprising DM1 is dependent on the binding to the somatostatin receptor.

Another data set deals with human SSTR2 (Homo sapiens, UniProt P30874). In words: Radioligand-receptor binding assay, [125I] somatostatin, membranes from SSTR2 expressing CHO-K1 cells. On the procedure:
These conjugates were also assessed in an in vitro assay evaluating binding to the somatostatin receptor 2 (SSTR2). A radioligand-receptor binding assay was conducted at Eurofins Panlabs (Taiwan) to determine the affinity of conjugates described herein to the SSTR2. The assay measures binding of radiolabeled ligand, [^125I] labeled somatostatin, to human SSTR2 using membrane preparations from SSTR2 expressing CHO-K1 cells. Membranes were incubated with radiolabeled somatostatin (0.03 nM) in the presence of conjugate/compound starting at a dose of 10 uM using 6× serial dilutions to obtain a 10-pt curve. After a four hour incubation, membranes were filtered and washed 3× and counted to determine the remaining [^125I] somatostatin bound to the receptor. IC50 values were determined by a non-linear, least squares regression analysis using MathIQ™ (ID Business Solutions Ltd., UK).

Data set [2] is described as follows: Ligand charge of maytansinoid conjugates. The format is physicochemical.
Setting [3] is: read-out: H524 IC50 6 h, 6 hours treatment, further 66 hours incubation.
Where [4] appears, read: read-out: H524 IC50 with 100 μM octreotide 6 h, with 100 μM octreotide competition, 6 h treatment.

Like-named read-outs stand apart in the source and are kept apart here.

Chain of human SSTR2 (P30874 whole entry): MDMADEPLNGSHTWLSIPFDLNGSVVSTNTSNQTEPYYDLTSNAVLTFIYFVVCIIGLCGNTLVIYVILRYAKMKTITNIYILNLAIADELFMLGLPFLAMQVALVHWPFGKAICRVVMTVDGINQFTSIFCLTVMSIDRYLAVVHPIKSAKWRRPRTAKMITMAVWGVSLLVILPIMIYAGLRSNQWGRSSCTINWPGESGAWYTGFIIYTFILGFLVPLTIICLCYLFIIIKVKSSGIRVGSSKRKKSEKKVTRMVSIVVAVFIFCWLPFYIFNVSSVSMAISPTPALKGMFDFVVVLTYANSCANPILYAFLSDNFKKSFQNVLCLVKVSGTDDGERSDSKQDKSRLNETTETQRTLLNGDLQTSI

Regarding `COc1cc2cc(c1Cl)N(C)C(=O)C[C@H](OC(=O)[C@H](C)N(C)C(=O)CCSSC(C)(C)[C@@H](NC(=O)[C@@H]1CSSC[C@H](NC(=O)[C@@H](Cc3ccccc3)NC(=O)NCc3ccccc3)C(=O)N[C@@H](Cc3ccc(O)cc3)C(=O)N[C@H](Cc3c[nH]c4ccccc34)C(=O)N[C@@H](CCCCN)C(=O)N[C@@H]([C@@H](C)O)C(=O)N1)C(N)=O)[C@]1(C)O[C@H]1[C@H](C)[C@@H]1C[C@@](O)(NC(=O)O1)[C@H](OC)/C=C/C=C(\C)C2` [Conjugate 9], the IC50 in data set [1] (setting [3]) was 208 nM; in data set [1] (setting [4]), 815 nM. This compound showed a Ki on human SSTR2 of 3.15 nM. Besides, in data set [2], the Ligand charge result was “+1”.
With `COc1cc2cc(c1Cl)N(C)C(=O)C[C@H](OC(=O)[C@H](C)N(C)C(=O)CCSSC(C)(C)[C@H](NC(=O)[C@@H]1CSSC[C@H](NC(=O)[C@@H](Cc3ccccc3)NC(=O)NCc3ccc(C(F)(F)F)cc3)C(=O)N[C@@H](Cc3ccc(O)cc3)C(=O)N[C@H](Cc3c[nH]c4ccccc34)C(=O)N[C@@H](CCCCN)C(=O)N[C@@H]([C@@H](C)O)C(=O)N1)C(N)=O)[C@]1(C)O[C@H]1[C@H](C)[C@@H]1C[C@@](O)(NC(=O)O1)[C@H](OC)/C=C/C=C(\C)C2` [Conjugate 15], the IC50 in data set [1] (setting [3]) is 17 nM; in data set [1] (setting [4]) it was 262 nM. The same compound returned a Ki on human SSTR2 of 0.077 nM. In addition, the Ligand charge entry in data set [2] was “+1”.
Regarding `COc1cc2cc(c1Cl)N(C)C(=O)C[C@H](OC(=O)[C@H](C)N(C)C(=O)CCSSC(C)(C)[C@H](NC(=O)CC[C@H](NC(=O)[C@@H]1CSSC[C@H](NC(=O)[C@H](N)Cc3ccccc3)C(=O)N[C@@H](Cc3ccc(O)cc3)C(=O)N[C@H](Cc3c[nH]c4ccccc34)C(=O)N[C@@H](CCCCN)C(=O)N[C@@H]([C@@H](C)O)C(=O)N1)C(N)=O)C(N)=O)[C@]1(C)O[C@H]1[C@H](C)[C@@H]1C[C@@](O)(NC(=O)O1)[C@H](OC)/C=C/C=C(\C)C2` [Conjugate 18], the IC50 in data set [1] (setting [3]) stood at 19 nM; in data set [1] (setting [4]), 353 nM. On human SSTR2, this compound showed a Ki of 0.18 nM. The Ligand charge entry in data set [2] is on record as “+2”.
The matching figures for `COc1cc2cc(c1Cl)N(C)C(=O)C[C@H](OC(=O)[C@H](C)N(C)C(=O)CCSSC[C@H](NC(=O)[C@@H]1CSSC[C@H](NC(=O)[C@@H](Cc3ccccc3)NC(=O)NC3CCCCC3)C(=O)N[C@@H](Cc3ccc(O)cc3)C(=O)N[C@H](Cc3c[nH]c4ccccc34)C(=O)N[C@@H](CCCCN)C(=O)N[C@@H]([C@@H](C)O)C(=O)N1)C(=O)NCc1ccccc1)[C@]1(C)O[C@H]1[C@H](C)[C@@H]1C[C@@](O)(NC(=O)O1)[C@H](OC)/C=C/C=C(\C)C2` [Conjugate 26]: 30 nM, 106 nM, 1.42 nM and “+1”.
The like results for `COc1cc2cc(c1Cl)N(C)C(=O)C[C@H](OC(=O)[C@H](C)N(C)C(=O)CCSSC[C@H](NC(=O)[C@@H]1CSSC[C@H](NC(=O)[C@@H](Cc3ccccc3)NC(C)=O)C(=O)N[C@@H](Cc3ccc(O)cc3)C(=O)N[C@H](Cc3c[nH]c4ccccc34)C(=O)N[C@@H](CCCCN)C(=O)N[C@@H]([C@@H](C)O)C(=O)N1)C(N)=O)[C@]1(C)O[C@H]1[C@H](C)[C@@H]1C[C@@](O)(NC(=O)O1)[C@H](OC)/C=C/C=C(\C)C2` [Conjugate 27] were, in that order, 17 nM, 49 nM, 0.15 nM and “+1”.
For the compound `COc1cc2cc(c1Cl)N(C)C(=O)C[C@H](OC(=O)[C@H](C)N(C)C(=O)CCSSC[C@H](NC(=O)[C@@H]1CSSC[C@H](NC(=O)[C@@H](Cc3ccccc3)NC(=O)C(F)(F)F)C(=O)N[C@@H](Cc3ccc(O)cc3)C(=O)N[C@H](Cc3c[nH]c4ccccc34)C(=O)N[C@@H](CCCCN)C(=O)N[C@@H]([C@@H](C)O)C(=O)N1)C(N)=O)[C@]1(C)O[C@H]1[C@H](C)[C@@H]1C[C@@](O)(NC(=O)O1)[C@H](OC)/C=C/C=C(\C)C2` [Conjugate 29], the figures for the IC50 in data set [1] (setting [3]) and in data set [1] (setting [4]) were 5.7 nM and 28 nM, respectively. At human SSTR2, this compound showed a Ki of 0.23 nM. Also, the Ligand charge result in data set [2] is on record as “+1”.
Take `COc1cc2cc(c1Cl)N(C)C(=O)C[C@H](OC(=O)[C@H](C)N(C)C(=O)CCSSC[C@@H](NC(=O)[C@@H]1CSSC[C@H](NC(=O)[C@@H](Cc3ccccc3)NC(=O)C(F)(F)F)C(=O)N[C@@H](Cc3ccc(O)cc3)C(=O)N[C@H](Cc3c[nH]c4ccccc34)C(=O)N[C@@H](CCCCN)C(=O)N[C@@H]([C@@H](C)O)C(=O)N1)C(N)=O)[C@]1(C)O[C@H]1[C@H](C)[C@@H]1C[C@@](O)(NC(=O)O1)[C@H](OC)/C=C/C=C(\C)C2` [Conjugate 32]: the IC50 in data set [1] (setting [3]) is 33 nM; in data set [1] (setting [4]) it was 98 nM. On human SSTR2, the Ki worked out at 0.82 nM. The Ligand charge entry in data set [2] is “+1”.
Regarding `COC(=O)N[C@H](Cc1ccccc1)C(=O)N[C@H]1CSSC[C@@H](C(=O)N[C@@H](CSSCCC(=O)N(C)[C@@H](C)C(=O)O[C@H]2CC(=O)N(C)c3cc(cc(OC)c3Cl)C/C(C)=C/C=C/[C@@H](OC)[C@@]3(O)C[C@H](OC(=O)N3)[C@@H](C)[C@@H]3O[C@@]23C)C(N)=O)NC(=O)[C@H]([C@@H](C)O)NC(=O)[C@H](CCCCN)NC(=O)[C@@H](Cc2c[nH]c3ccccc23)NC(=O)[C@H](Cc2ccc(O)cc2)NC1=O` [Conjugate 35], the IC50 in data set [1] (setting [3]) was 27 nM; in data set [1] (setting [4]), 17 nM. The compound further displayed a Ki at human SSTR2 of 0.024 nM. Moreover, the Ligand charge result in data set [2] is given as “+1”.
As to `CCNC(=O)N[C@H](Cc1ccccc1)C(=O)N[C@H]1CSSC[C@@H](C(=O)N[C@@H](CSSCCC(=O)N(C)[C@@H](C)C(=O)O[C@H]2CC(=O)N(C)c3cc(cc(OC)c3Cl)C/C(C)=C/C=C/[C@@H](OC)[C@@]3(O)C[C@H](OC(=O)N3)[C@@H](C)[C@@H]3O[C@@]23C)C(N)=O)NC(=O)[C@H]([C@@H](C)O)NC(=O)[C@H](CCCCN)NC(=O)[C@@H](Cc2c[nH]c3ccccc23)NC(=O)[C@H](Cc2ccc(O)cc2)NC1=O` [Conjugate 39], the figures for the IC50 in data set [1] (setting [3]) and in data set [1] (setting [4]) were 1.3 nM and 12 nM, respectively. Further, the Ki at human SSTR2 amounted to 0.07 nM. Besides, the Ligand charge entry in data set [2] is on record as “+1”.
For the compound `COc1cc2cc(c1Cl)N(C)C(=O)C[C@H](OC(=O)[C@H](C)N(C)C(=O)CCSSC[C@H](NC(=O)[C@@H]1CSSC[C@H](NC(=O)[C@@H](Cc3ccccc3)NCc3ccccc3)C(=O)N[C@@H](Cc3ccc(O)cc3)C(=O)N[C@H](Cc3c[nH]c4ccccc34)C(=O)N[C@@H](CCCCN)C(=O)N[C@@H]([C@@H](C)O)C(=O)N1)C(N)=O)[C@]1(C)O[C@H]1[C@H](C)[C@@H]1C[C@@](O)(NC(=O)O1)[C@H](OC)/C=C/C=C(\C)C2` [Conjugate 43], the IC50 in data set [1] (setting [3]) came out at 7.2 nM; in data set [1] (setting [4]) it was 20 nM. This compound displayed a Ki at human SSTR2 of 0.075 nM. Besides, the Ligand charge result in data set [2] is “+2”.
With `COc1cc2cc(c1Cl)N(C)C(=O)C[C@H](OC(=O)[C@H](C)N(C)C(=O)CCSSC[C@H](NC(C)=O)C(=O)NC[C@H](NC(=O)[C@@H]1CSSC[C@H](NC(=O)[C@H](N)Cc3ccccc3)C(=O)N[C@@H](Cc3ccc(O)cc3)C(=O)N[C@H](Cc3c[nH]c4ccccc34)C(=O)N[C@@H](CCCCN)C(=O)N[C@@H]([C@@H](C)O)C(=O)N1)C(N)=O)[C@]1(C)O[C@H]1[C@H](C)[C@@H]1C[C@@](O)(NC(=O)O1)[C@H](OC)/C=C/C=C(\C)C2` [Conjugate 45], the half-maximal inhibitory concentration (IC50) in data set [1] (setting [3]) was determined as 1.3 nM; in data set [1] (setting [4]), 154 nM. In addition, the Ki on human SSTR2 is 0.049 nM. Further, in data set [2], the Ligand charge entry is on record as “+2”.
For `COc1cc2cc(c1Cl)N(C)C(=O)C[C@H](OC(=O)[C@H](C)N(C)C(=O)CCSSC[C@H](NC(=O)CC[C@H](NC(=O)[C@@H]1CSSC[C@H](NC(=O)[C@H](N)Cc3ccccc3)C(=O)N[C@@H](Cc3ccc(O)cc3)C(=O)N[C@H](Cc3c[nH]c4ccccc34)C(=O)N[C@@H](CCCCN)C(=O)N[C@@H]([C@@H](C)O)C(=O)N1)C(N)=O)C(N)=O)[C@]1(C)O[C@H]1[C@H](C)[C@@H]1C[C@@](O)(NC(=O)O1)[C@H](OC)/C=C/C=C(\C)C2` [Conjugate 46], the values for the IC50 in data set [1] (setting [3]) and in data set [1] (setting [4]) were 0.3 nM and 195 nM, respectively. At human SSTR2, this compound had a Ki of 0.045 nM. The Ligand charge entry in data set [2] is listed as “+2”.

In general, IC50 refers to the concentration that gives 50% inhibition. In general, Ki refers to a dissociation constant, usually derived from enzyme kinetics or from competition with a known ligand. Read a high Ki as weaker binding.
